According to US12070489B2, “Method of treating cancer with a cancer therapy in combination with another therapeutic agent” (Rappaport Family Institute for Research in the Medical …, priority 2018, dated 2024):

What was measured:
IL-6 = IL-6 quantification in plasma by ELISA after DOX; format: in vivo; conditions: naive female BALB/c mice, 240 μg DOX IP, one day after injection
Experimental: For determination of IL-6 expression following DOX treatment, 7 weeks old naïve female BALB/c mice (n=3) were IP injected with 240 μg DOX. Control mice (n=3) were left untreated. One day after the injection, mice were bled by cardiac puncture and blood was collected into EDTA-coated tubes. […] Supernatants (representing the plasma samples) were collected and the level of IL-6 in the plasma was determined by ELISA (IL-6 Quantikine ELISA Kit, R&D systems) according to the manufacturer's instruction.
To investigate the effect of chemotherapy on the level of IL-6 in the circulation, naïve 7-weeks old female BALB/c mice were IP injected with 240 μg DOX (doxorubicin, Adriamycin™) or were left untreated (control mice). One day after the injection, the level of IL-6 in the plasma was determined by ELISA.

circulating factors = assay: Mouse L308 Array screen of plasma from naive mice treated with FOLFOX or Paclitaxel chemotherapy; format: in vivo; conditions: circulating level, BALB/c mice
Experimental: Determination of proteins expression using protein arrays was performed according to the manufacturer's instructions.
To identify host-derived circulating factors whose levels change in response to chemotherapy, a protein array-based screens were performed using plasma from naïve (non-tumor bearing) mice that were treated with different chemotherapy types. The use of naïve mice allows identification of factors specifically generated by the host in response to chemotherapy, independent of tumor presence. […] Control mice (n=5) were injected with vehicle control. Twenty-four hours after treatment administration, mice were sacrificed, plasma was isolated and pooled per group. […] These factors, and their respective fold changes in response to each chemotherapy type (Paclitaxel™, FOLFOX™), are listed in Table 5.

SMILES: COc1cccc2c1C(=O)c1c(O)c3c(c(O)c1C2=O)C[C@@](O)(C(=O)CO)C[C@@H]3O[C@H]1C[C@H](N)[C@H](O)[C@H](C)O1 [DOX, doxorubicin]
- increase of plasma level of IL-6 compared to control (IL-6): 22 fold

SMILES: CC(=O)O[C@H]1C(=O)[C@@]2(C)[C@H]([C@H](OC(=O)c3ccccc3)[C@]3(O)C[C@H](OC(=O)[C@H](O)[C@@H](NC(=O)c4ccccc4)c4ccccc4)C(C)=C1C3(C)C)[C@]1(OC(C)=O)CO[C@@H]1C[C@@H]2O [Paclitaxel, paclitaxel]
- Fold change CRG-2 (chemotherapy-treated vs control) (circulating factors): >10 fold
- Fold change CRP (chemotherapy-treated vs control) (circulating factors): >10 fold
- Fold change CXCL14/BRAK (chemotherapy-treated vs control) (circulating factors): 2.6 fold
- Fold change CXCL16 (chemotherapy-treated vs control) (circulating factors): 4.4 fold
- Fold change CXCR2/IL-8 RB (chemotherapy-treated vs control) (circulating factors): 2.0 fold
- Fold change CXCR6 (chemotherapy-treated vs control) (circulating factors): 3.6 fold
- Fold change Cardiotrophin-1 (chemotherapy-treated vs control) (circulating factors): >10 fold
- Fold change Cripto (chemotherapy-treated vs control) (circulating factors): >10 fold
- Fold change Dkk-3 (chemotherapy-treated vs control) (circulating factors): >10 fold
- Fold change Endocan (chemotherapy-treated vs control) (circulating factors): 4.4 fold
- Fold change Endostatin (chemotherapy-treated vs control) (circulating factors): 4.9 fold
- Fold change Eotaxin-2 (chemotherapy-treated vs control) (circulating factors): 3.4 fold
- Fold change Erythropoietin (EPO) (chemotherapy-treated vs control) (circulating factors): 3.9 fold
- Fold change Frizzled-6 (chemotherapy-treated vs control) (circulating factors): 2.2 fold
- Fold change Frizzled-7 (chemotherapy-treated vs control) (circulating factors): 6.1 fold
- Fold change GITR (chemotherapy-treated vs control) (circulating factors): >10 fold
- Fold change GM-CSF (chemotherapy-treated vs control) (circulating factors): 2.4 fold
- Fold change IGFBP-1 (chemotherapy-treated vs control) (circulating factors): >10 fold
- Fold change IL-1 R4/ST2 (chemotherapy-treated vs control) (circulating factors): 1.9 fold
- Fold change IL-1 alpha (chemotherapy-treated vs control) (circulating factors): >10 fold
- Fold change IL-3 R alpha (chemotherapy-treated vs control) (circulating factors): >10 fold
- Fold change IL-7 R alpha (chemotherapy-treated vs control) (circulating factors): 8.8 fold
- Fold change IL-9 R (chemotherapy-treated vs control) (circulating factors): 5.7 fold
- Fold change IL-12 p70 (chemotherapy-treated vs control) (circulating factors): >10 fold
- Fold change IL-15 (chemotherapy-treated vs control) (circulating factors): 2.5 fold
- Fold change IL-15 R alpha (chemotherapy-treated vs control) (circulating factors): 3.4 fold
- Fold change IL-17R (chemotherapy-treated vs control) (circulating factors): 2.6 fold
- Fold change IL-18 R alpha/IL-1 R5 (chemotherapy-treated vs control) (circulating factors): >10 fold
- Fold change IL-20 (chemotherapy-treated vs control) (circulating factors): >10 fold
- Fold change IL-23 R (chemotherapy-treated vs control) (circulating factors): 1.8 fold
- Fold change IL-27 (chemotherapy-treated vs control) (circulating factors): 2.0 fold
- Fold change IL-28/IFN-lambda (chemotherapy-treated vs control) (circulating factors): 5.4 fold
- Fold change IL-31 (chemotherapy-treated vs control) (circulating factors): >10 fold
- Fold change LIF (chemotherapy-treated vs control) (circulating factors): >10 fold
- Fold change LIX (chemotherapy-treated vs control) (circulating factors): >10 fold
- Fold change LRP-6 (chemotherapy-treated vs control) (circulating factors): >10 fold
- Fold change Lungkine (chemotherapy-treated vs control) (circulating factors): 2.0 fold
- Fold change Lymphotoxin beta R/TNFRSF3 (chemotherapy-treated vs control) (circulating factors): 1.6 fold
- Fold change M-CSF (chemotherapy-treated vs control) (circulating factors): 1.8 fold
- Fold change MAdCAM-1 (chemotherapy-treated vs control) (circulating factors): >10 fold
- Fold change MCP-1 (chemotherapy-treated vs control) (circulating factors): >10 fold
- Fold change MIP-1 gamma (chemotherapy-treated vs control) (circulating factors): >10 fold
- Fold change MIP-2 (chemotherapy-treated vs control) (circulating factors): 3.1 fold
- Fold change MMP-9 (chemotherapy-treated vs control) (circulating factors): 4.3 fold
- Fold change P-Selectin (chemotherapy-treated vs control) (circulating factors): >10 fold
- Fold change PF-4 (chemotherapy-treated vs control) (circulating factors): 3.6 fold
- Fold change Prolactin (chemotherapy-treated vs control) (circulating factors): 4.1 fold
- Fold change SDF-1 (chemotherapy-treated vs control) (circulating factors): >10 fold
- Fold change Soggy-1 (chemotherapy-treated vs control) (circulating factors): 3.6 fold
- Fold change TACI/TNFRSF13B (chemotherapy-treated vs control) (circulating factors): >10 fold
- Fold change TARC (chemotherapy-treated vs control) (circulating factors): >10 fold
- Fold change TCA-3 (chemotherapy-treated vs control) (circulating factors): 3.0 fold
- Fold change TGF-beta 2 (chemotherapy-treated vs control) (circulating factors): 3.4 fold
- Fold change TGF-beta RII (chemotherapy-treated vs control) (circulating factors): 2.2 fold
- Fold change TNF-alpha (chemotherapy-treated vs control) (circulating factors): 2.8 fold
- Fold change TNF-beta/TNFSF1B (chemotherapy-treated vs control) (circulating factors): 2.9 fold
- Fold change TPO (chemotherapy-treated vs control) (circulating factors): >10 fold
- Fold change TWEAK R/TNFRSF12 (chemotherapy-treated vs control) (circulating factors): >10 fold
- Fold change Thrombospondin (chemotherapy-treated vs control) (circulating factors): >10 fold
- Fold change Thymus Chemokine-1 (chemotherapy-treated vs control) (circulating factors): >10 fold
- Fold change VEGFC (chemotherapy-treated vs control) (circulating factors): >10 fold
- Fold change WISP-1/CCN4 (chemotherapy-treated vs control) (circulating factors): 3.7 fold
